Like-named read-outs stand apart in the source and are kept apart here.
Columns and labels:
[1] = acute toxicity by oral administration (LD50), rats; settings: rat, in vivo
Text: Safety of the effective components of the composition of the present invention will be given hereunder. For example, acute toxicity by oral administration of sodium o-nitrophenol, sodium p-nitrophenol and sodium 5-nitroguaiacol is as follows:
Acute toxicity by oral administration is low. In addition, it has been also confirmed that those compounds are without problem in terms of toxicity by chronic toxicity test, teratogenic test and carcinogenic test. Further, as mentioned above, those compounds have been used as plant growth regulators and hair growth promoters throughout the world. In the past, they were used as injections but there was no example of adverse affection on the animals who took the plants to which they were applied, on the persons who were injected therewith and on the persons using the hair growth promoters containing them. Thus, their safety in humans has been practically confirmed. As mentioned above, o-nitrophenol, p-nitrophenol, 5-nitroguaiacol and salts thereof which are active ingredient(s) of the methods for growth promoting of the present invention have high safety.

Tilapia fry = assay type: in vivo; settings: feed with 10 ppm of a single salt; for Body Weight Increase per 1 Tilapia after 4 Weeks: control 3.78; for Body Weight Increase per 1 Tilapia after 8 Weeks: control 10.10
Protocol: Tilapia fry with average body weight 2 g were used. Commercial feed for tilapia was given twice a day (morning and evening) in an amount of 5 to 8% of the body weight. The control group was given the commercial feed only, while the treated groups were given the commercial feed with the addition of the test compound(s) o-nitrophenol, p-nitrophenol and/or 5-nitroguaiacol, in the amount(s) shown in Table 3. Body weights were measured after 4 and 8 weeks.

[2] = female rats, read-out: LD50 for rats (female)
[3] = male rats, read-out: LD50 for rats (male)

Compound	LD50 [1, 2]	LD50 [1, 3]	Body Weight Increase per 1 Tilapia after 4 Weeks (Tilapia fry)	Body Weight Increase per 1 Tilapia after 4 Weeks, relative to control (100) (Tilapia fry)	Body Weight Increase per 1 Tilapia after 8 Weeks (Tilapia fry)	Body Weight Increase per 1 Tilapia after 8 Weeks, relative to control (100) (Tilapia fry)
COc1ccc([N+](=O)[O-])cc1O [Sodium 5-nitroguaiacol, sodium 5-nitroguaiacol]	1270 mg/kg	3100 mg/kg	4.08 g	108	11.09 g	110
O=[N+]([O-])c1ccccc1O.[Na] [Sodium o-nitrophenol, sodium o-nitrophenol]	1460 mg/kg	2050 mg/kg	3.97 g	105	10.71 g	106
O=[N+]([O-])c1ccc(O)cc1.[Na] [Sodium p-nitrophenol, sodium p-nitrophenol]	482 mg/kg	1250 mg/kg	4.04 g	107	10.61 g	105

From patent publication US5739171A, “Method for promoting animal growth” (priority 1993, dated 1998)
